Assay [1] has as its target T1, NHE3 (UniProt P48764).
T1 sequence (P48764 1-834): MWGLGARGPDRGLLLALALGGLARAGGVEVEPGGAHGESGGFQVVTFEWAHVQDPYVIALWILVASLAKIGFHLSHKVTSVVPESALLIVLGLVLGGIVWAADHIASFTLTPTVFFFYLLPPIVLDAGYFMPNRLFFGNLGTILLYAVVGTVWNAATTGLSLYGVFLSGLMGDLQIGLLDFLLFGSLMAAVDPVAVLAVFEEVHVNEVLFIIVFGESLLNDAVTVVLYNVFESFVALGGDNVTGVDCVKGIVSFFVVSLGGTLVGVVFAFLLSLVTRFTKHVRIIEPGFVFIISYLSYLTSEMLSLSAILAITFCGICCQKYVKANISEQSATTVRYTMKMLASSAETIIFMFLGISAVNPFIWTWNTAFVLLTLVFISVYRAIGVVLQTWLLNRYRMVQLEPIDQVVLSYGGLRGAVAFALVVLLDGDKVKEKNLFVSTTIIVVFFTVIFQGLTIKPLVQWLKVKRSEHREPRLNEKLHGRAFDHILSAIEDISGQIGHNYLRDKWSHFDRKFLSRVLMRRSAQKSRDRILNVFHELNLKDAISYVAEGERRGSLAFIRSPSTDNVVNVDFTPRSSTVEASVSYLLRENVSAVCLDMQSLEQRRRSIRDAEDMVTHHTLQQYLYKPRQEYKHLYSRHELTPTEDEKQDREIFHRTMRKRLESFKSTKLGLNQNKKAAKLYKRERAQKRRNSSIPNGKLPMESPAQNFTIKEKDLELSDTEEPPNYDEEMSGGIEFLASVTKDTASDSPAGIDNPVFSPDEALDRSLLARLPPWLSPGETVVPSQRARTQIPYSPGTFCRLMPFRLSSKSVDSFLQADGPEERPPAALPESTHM
Briefly: Cell-based NHE3 activity under transient conditions (BCECF-AM intracellular pH, FLIPR). Also noted: species or system Rat or Human. The settings on record: opossum kidney cells expressing NHE3, read-out: Cell-based NHE3 inhibition IC50 (uM) under transient conditions. The source says:
(§1) Opossum kidney (OK) cells were obtained from ATCC and cultured and expanded according to its instructions. OK monoclonal stable cell lines expressing the Rat NHE3 (Gene Bank registration number: M85300) protein and OK monoclonal stable cell lines expressing the Human NHE3 (Gene Bank registration number: NM_004174.1) protein were constructed by lentivirus infection.
The general procedure of the cell-based NHE3 activity experiments under transient conditions (transient inhibition) was based on an adaptation method of the pH-sensitive dye method originally reported by Tisen (Proc. Natl. Acad. Sci. USA) (1984) 81(23):7436-7440) to measure rat NHE3-mediated Na+-dependent reverse H+ transport, and was optimized according to the instructions “Measuring Intracellular pH With the FLIPR and FLIPR 384 Fluorometric Imaging Plate Reader Systems” published by Molecular Devices. The specific method was: Rat NHE3 OK monoclonal cells or Human NHE3 OK monoclonal cells were inoculated into 384-well plates and grew overnight. The medium was aspirated from the wells and the cells were washed twice with FLIPR buffer (Hank's BSS 1×, 20 mM HEPES, 1% BSA) followed by incubation with FLIPR buffer (Hank's BSS 1×, 20 mM HEPES, 1% BSA) containing […] BCECF-AM (Invitrogen) for 45 min at room temperature. Subsequently, […] of 200 mM NH4Cl-HEPES buffer (Hank's BSS 1×, 20 mM HEPES, 200 mM NH4Cl) was added and the cells were incubated for 15-20 minutes at room temperature. Cells were washed twice with 20 mM NH4Cl-HEPES buffer (Hank's BSS 1×, 20 mM HEPES, 20 mM NH4Cl). NHE3-mediated pH sensitization in cells was normalized by addition of containing 0.4 mM amiloride (EIPA) and […] test compound or Na-HEPES buffer (100 mM NaCl, 50 mM HEPES, 10 mM glucose, 5 mM KCl, 2 mM CaCl2), 1 mM MgCl2, pH 7.4) and monitoring of BCECF-AM fluorescence at λem 535 nm excitated by λex 440 nm and λex 490 nm respectively. Ratio=fluorescence value (λex 490 nm)/fluorescence value (λex 440 nm) was set, the average value of the Ratio difference between the end time and the start time between the duplicate wells was calculated, the average value and the concentration value of the compound were drawn, and Graphpad Prism software was used to estimate IC50 value.

Assay [2] addresses T1, NHE3. Briefly: Cell-based NHE3 activity under persistent conditions (60 min pre-incubation, compound removed). The settings on record: opossum kidney cells expressing NHE3, read-out: Cell-based NHE3 inhibition IC50 (uM) under persistent conditions. Also noted: species or system Rat or Human.
Source text: as §1
The general procedure of the cell-based NHE3 activity assay under persistent conditions (persistent inhibition) was: Rat NHE3 OK monoclonal cells or Human NHE3 OK monoclonal cells were inoculated into 384-well plates and grew overnight. The medium was aspirated from the wells and the cells were washed twice with FLIPR buffer (Hank's BSS 1×, 20 mM HEPES, 1% BSA) followed by the addition of Na-HEPES buffer containing […] test compound (100 mM NaCl, 50 mM HEPES, 10 mM glucose, 5 mM KCl, 2 mM CaCl2, 1 mM MgCl2, pH 7.4) and incubated for 60 minutes at room temperature. The compounds were aspirated from the wells and incubated with FLIPR buffer (Hank's BSS 1×, 20 mM HEPES, 1% BSA) containing […] BCECF-AM (Invitrogen) for 45 minutes at room temperature. Subsequently, […] of 200 mM NH4Cl-HEPES buffer (Hank's BSS 1×, 20 mM HEPES, 200 mM NH4Cl) was added and incubated for 15-20 minutes at room temperature. The cells were washed twice with 20 mM NH4Cl-HEPES buffer (Hank's BSS 1×, 20 mM HEPES, 20 mM […]). […] Ratio=fluorescence value (λex 490 nm)/fluorescence value (λex 440 nm) was set, the average value of the Ratio difference between the end time and the start time between the duplicate wells was calculated, the average value and the concentration value of the compound were drawn, and the dose-response-inhibition (four parameters) equation was used to estimate EC50 value by GraphpadPrism.

Counter-ions that a name gives are not always drawn.

Turning to `CN1Cc2c(Cl)cc(Cl)cc2C(c2ccc3c(c2)C(=O)N(CCOCCOCCOCCNC(=O)COCC(=O)NCCOCCOCCOCCN2Cc4ccc(C5CN(C)Cc6c(Cl)cc(Cl)cc65)cc4C2=O)C3)C1` (stereo not drawn) [Embodiment J1], the IC50 (usually the concentration at which inhibition is half-maximal) amounted to 0.43 µM at NHE3 [1] (embodiment compounds) and 0.03 µM on NHE3 [2].
In the case of `CN1Cc2c(Cl)cc(Cl)cc2C(c2ccc3c(c2)C(=O)NC3)C1` (stereo not drawn) [Intermediate B1-6], the IC50 on NHE3 [1] (intermediates) was found to be 0.53 µM.
Consider `CN1Cc2c(Cl)cc(Cl)cc2C(c2ccc3c(c2)C(=O)N(CCOCCOCCOCCNC(=O)NCCCCNC(=O)NCCOCCOCCCN2Cc4ccc(C5CCCc6ccc(Cl)cc65)cc4C2=O)C3)C1` (stereo not drawn) [Embodiment B6], for which the concentration for half-maximal inhibition (IC50) on NHE3 [1] (embodiment compounds) is 1.05 µM; on NHE3 [2], 0.04 µM.
With `CN1Cc2c(Cl)cc(Cl)cc2C(c2ccc3c(c2)C(=O)N(CCOCCOCCOCCNC(=O)CN(CCN(CC(=O)O)CC(=O)NCCOCCOCCOCCN2Cc4ccc(C5CN(C)Cc6c(Cl)cc(Cl)cc65)cc4C2=O)CC(=O)O)C3)C1` (stereo not drawn) [Embodiment F2], the IC50 on NHE3 [1] (embodiment compounds) is 0.62 µM; at NHE3 [2], 0.08 µM.
In the same order, the values of `CN1Cc2c(Cl)cc(Cl)cc2C(c2ccc3c(c2)CN(CCOCCOCCNC(=O)NCCCCNC(=O)NCCOCCOCCN2Cc4cc(C5CN(C)Cc6c(Cl)cc(Cl)cc65)ccc4C2=O)C3=O)C1` (stereo not drawn) [Embodiment B4] are 0.93 µM and 0.45 µM.
Consider `CN1Cc2c(Cl)cc(Cl)cc2C(c2ccc3cn[nH]c3c2)C1` (stereo not drawn) [Intermediate D1-7], for which the concentration for half-maximal inhibition (IC50) at NHE3 [1] (intermediates) stood at 1.44 µM.
As for `CN1Cc2c(Cl)cc(Cl)cc2C(c2ccc3c(c2)C(=O)N(CCOCCOCCNC(=O)CN(CCN(CC(=O)O)CC(=O)NCCOCCOCCN2Cc4ccc(C5CN(C)Cc6c(Cl)cc(Cl)cc65)cc4C2=O)CC(=O)O)C3)C1` (stereo not drawn) [Embodiment F1], the half-maximal inhibitory concentration (IC50) on NHE3 [1] (embodiment compounds) came to 0.91 µM; at NHE3 [2], 0.64 µM.
For `CN1Cc2c(Cl)cc(Cl)cc2C(c2ccc3c(c2)C(=O)N(CCOCCOCCOCCNC(=O)[C@@H](O)[C@@H](O)C(=O)NCCOCCOCCOCCN2Cc4ccc(C5CN(C)Cc6c(Cl)cc(Cl)cc65)cc4C2=O)C3)C1` (stereo partly drawn) [Embodiment J3], the half-maximal inhibitory concentration (IC50) at NHE3 [1] (embodiment compounds) stood at 0.26 µM; on NHE3 [2] it was 0.08 µM.
In the same order, the values of `CN1Cc2c(Cl)cc(Cl)cc2C(c2ccc3cnn(CCOCCOCCOCCNC(=O)NCCCCNC(=O)NCCOCCOCCOCCn4ncc5ccc(C6CN(C)Cc7c(Cl)cc(Cl)cc76)cc54)c3c2)C1` (stereo not drawn) [Embodiment D2-P2 hydrochloride salt] are 0.27 µM and 0.12 µM.
The like results for `CN1Cc2c(Cl)cc(Cl)cc2C(c2ccc3c(c2)C(=O)N(CCOCCOCCNC(=O)NCCCCNC(=O)NCCOCCOCCN2CCc4ccc(C5CN(C)Cc6c(Cl)cc(Cl)cc65)cc4C2=O)CC3)C1` (stereo not drawn) [Embodiment B3] were, in that order, 0.77 µM and 0.41 µM.
`CN1Cc2c(Cl)cc(Cl)cc2C(c2cccc3c2CNS3(=O)=O)C1` (stereo not drawn) [Intermediate A2-13]: the IC50 on NHE3 [1] (intermediates) was determined as 1.63 µM.
Consider `CN1Cc2c(Cl)cc(Cl)cc2C(c2ccc3c(c2)C(=O)N(CCOCCOCCNC(=O)[C@H](O)[C@H](O)[C@@H](O)[C@@H](O)C(=O)NCCOCCOCCN2Cc4ccc(C5CN(C)Cc6c(Cl)cc(Cl)cc65)cc4C2=O)C3)C1` (stereo partly drawn) [Embodiment J4], for which the half-inhibitory concentration (IC50) at NHE3 [1] (embodiment compounds) is 0.25 µM; at NHE3 [2], 0.05 µM.
Consider `CN1Cc2c(Cl)cc(Cl)cc2C(c2ccc3c(c2)S(=O)(=O)N(CCOCCOCCNC(=O)NCCCCNC(=O)NCCOCCOCCN2CCc4ccc(C5CN(C)Cc6c(Cl)cc(Cl)cc65)cc4S2(=O)=O)CC3)C1` (stereo not drawn) [Embodiment C1], for which the results for the IC50 on NHE3 [1] (embodiment compounds) and at NHE3 [2] were 0.22 µM and 0.59 µM, respectively.
As for `CN1Cc2c(Cl)cc(Cl)cc2C(c2ccc3c(c2)C(=O)N(CCOCCOCCOCCNC(=O)[C@H](O)[C@@H](O)C(=O)NCCOCCOCCOCCN2Cc4ccc(C5CN(C)Cc6c(Cl)cc(Cl)cc65)cc4C2=O)C3)C1` (stereo partly drawn) [Embodiment J2], the 50% inhibitory concentration (IC50) on NHE3 [1] (embodiment compounds) is 0.32 µM; at NHE3 [2], 0.05 µM.
As to `CN1Cc2c(Cl)cc(Cl)cc2C(c2ccc3c(c2)S(=O)(=O)NC=C3)C1` (stereo not drawn) [Intermediate E1-9], the IC50 on NHE3 [1] (intermediates) was determined as 3.17 µM.
For the molecule `CN1Cc2c(Cl)cc(Cl)cc2C(c2ccc3c(c2)C(=O)N(CCOCCOCCNC(=O)NCCCCNC(=O)NCCOCCOCCN2Cc4ccc(C5CN(C)Cc6c(Cl)cc(Cl)cc65)cc4C2=O)C3)C1` (stereo not drawn) [Embodiment B1], the IC50 on NHE3 [1] (embodiment compounds) amounted to 0.52 µM; at NHE3 [2], 0.02 µM.
With `CN1Cc2c(Cl)cc(Cl)cc2[C@H](c2cccc(S(=O)(=O)NCCOCCOCCNC(=O)NCCCCNC(=O)NCCOCCOCCNS(=O)(=O)c3cccc([C@@H]4CN(C)Cc5c(Cl)cc(Cl)cc54)c3)c2)C1` [Tenapanor, reference compound], the figures for the IC50 on NHE3 [1] (embodiment compounds) and on NHE3 [2] were 0.74 µM and 0.56 µM, respectively.
The like results for `CN1Cc2c(Cl)cc(Cl)cc2C(c2ccc3c(c2)S(=O)(=O)N(CCOCCOCCNC(=O)NCCCCNC(=O)NCCOCCOCCN2C=Cc4ccc(C5CN(C)Cc6c(Cl)cc(Cl)cc65)cc4S2(=O)=O)C=C3)C1` (stereo not drawn) [Embodiment E1] were, in that order, 0.06 µM and 0.05 µM.
Consider `CN1Cc2c(Cl)cc(Cl)cc2C(c2ccc3c(c2)CNC3=O)C1` (stereo not drawn) [Intermediate B4-6], for which the IC50 at NHE3 [1] (intermediates) worked out at 0.79 µM.
`CN1Cc2c(Cl)cc(Cl)cc2C(c2ccc3c(c2)S(=O)(=O)NCC3)C1` (stereo not drawn) [Intermediate C1-11]: the IC50 at NHE3 [1] (intermediates) came to 1.24 µM.
With `CN1Cc2c(Cl)cc(Cl)cc2C(c2ccc3cc[nH]c(=O)c3c2)C1` (stereo not drawn) [Intermediate B5-6], the IC50 at NHE3 [1] (intermediates) turned out to be 1.69 µM.
Still for that read-out and setting: next, `CN1Cc2c(Cl)cc(Cl)cc2C(c2ccc3c(c2)S(=O)(=O)NC3)C1` (stereo not drawn) [Intermediate A1-13]: 0.6 µM.
As to `CN1Cc2c(Cl)cc(Cl)cc2C(c2cccc3c2CN(CCOCCOCCNC(=O)NCCCCNC(=O)NCCOCCOCCN2Cc4c(C5CN(C)Cc6c(Cl)cc(Cl)cc65)cccc4S2(=O)=O)S3(=O)=O)C1` (stereo not drawn) [Embodiment A2], the IC50 on NHE3 [1] (embodiment compounds) came to 3.14 µM.
`CN1Cc2c(Cl)cc(Cl)cc2C(c2cccc3c2CN(CCOCCOCCNC(=O)NCCCCNC(=O)NCCOCCOCCN2Cc4c(cccc4C4CN(C)Cc5c(Cl)cc(Cl)cc54)C2=O)C3=O)C1` (stereo not drawn) [Embodiment B2]: the IC50 at NHE3 [1] (embodiment compounds) was found to be 2.05 µM.
Turning to `CN1Cc2c(Cl)cc(Cl)cc2C(c2cccc3c2CNC3=O)C1` (stereo not drawn) [Intermediate B2-6], the half-maximal inhibitory concentration (IC50) at NHE3 [1] (intermediates) was 0.17 µM.

The values above are taken from US20240082406A1, “BENZOHETEROCYCLE SUBSTITUTED TETRAHYDROISOQUINOLINE COMPOUND” (SHANGHAI JEMINCARE PHARMACEUTICAL CO., LTD, priority 2020, published 2024).
